Measured values as given in ChEMBL document CHEMBL5126585, “Synthesis and evaluation of 1,2,3-dithiazole inhibitors of the nucleocapsid protein of feline immunodeficiency virus (FIV) as a model for HIV infection” (Bioorg Med Chem, 2022).

How the values were obtained:
[1] = Cytotoxicity against FEA cells assessed as reduction in cell viability incubated for 24 hrs by MTT assay; format: toxicity, cell-based, Felis catus; conditions: cat
[2] = Therapeutic index, ratio of CC50 for cytotoxicity against IL2 independent FL-4 cells to EC50 for antiviral activity against Feline immunodeficiency virus infected in IL2 independent FL-4 cells; format: toxicity, cell-based; conditions: cat; read-out: Ratio CC50/EC50
[3] = Cytotoxicity against CRFK cells assessed as reduction in cell viability incubated for 24 hrs by MTT assay; format: toxicity, cell-based, Felis catus; conditions: cat
[4] = Cytotoxicity against IL2 independent FL-4 cells assessed as reduction in cell viability measured after 7 days by MTT assay; format: toxicity, cell-based, Felis catus; conditions: cat, time 7 day
[5] = test system: Feline immunodeficiency virus; test: Antiviral activity against Feline immunodeficiency virus infected in IL2 independent FL-4 cells assessed as reduction in viral replication treated for 7 days with daily replacement by qRT-PCR analysis; format: functional, organism-based; conditions: FL-4, 168 h

SMILES | CC50 at 24 h [1] | selectivity ratio [2] | CC50 at 24 h [3] | CC50 at 168 h [4] | EC50 [5]
Clc1nss/c1=N\c1ccc(OCc2ccccc2)cc1 | 74 µM | 1.9 | > 100 µM | 44 µM | 23 µM
Clc1nss/c1=N\c1cccc(Br)c1 | > 100 µM |  | > 100 µM | > 100 µM | > 100 µM
Clc1nss/c1=N\c1cc(-c2ccccc2)nn1Cc1ccccc1 | 29 µM | 1.7 | 37 µM | 53 µM | 31 µM
Clc1nss/c1=N\c1ccc2c(c1)OCO2 | 53 µM | 2.5 | 44 µM | 49 µM | 20 µM
FC(F)(F)c1ccc(/N=c2\ssnc2Cl)cc1 | > 100 µM | > 6.7 | > 100 µM | > 100 µM | 15 µM
Clc1nss/c1=N\c1ccc(I)cc1 | 44 µM | 129 | 73 µM | 49 µM | 0.38 µM
Clc1nss/c1=N\c1cc(-c2ccccc2)n[nH]1 | 31 µM | 9.2 | 18 µM | 4.9 µM | 0.53 µM
Clc1nss/c1=N\c1ccc(Oc2ccccc2)cc1 | > 100 µM | > 2.9 | > 100 µM | > 100 µM | 35 µM
Clc1ccccc1/N=c1\ssnc1Cl | 25 µM | 2.6 | > 100 µM | 51 µM | 20 µM
Cc1cc(/N=c2\ssnc2Cl)n(Cc2ccccc2)n1 | 30 µM | 2.4 | 33 µM | 52 µM | 22 µM
Clc1nss/c1=N\c1ccc(Br)cc1 | 40 µM | > 160 | > 100 µM | > 100 µM | 0.64 µM
Cc1cc(OC(F)(F)F)ccc1/N=c1\ssnc1Cl | > 100 µM |  | > 100 µM | > 100 µM | > 100 µM
CSc1ccc(/N=c2\ssnc2Cl)cc1 | 53 µM | 2.4 | 43 µM | 51 µM | 21 µM
CCOc1cccnc1/N=c1\ssnc1Cl | 45 µM | 90 | 42 µM | 49 µM | 0.55 µM
O=[N+]([O-])c1ccc(/N=c2\ssnc2Cl)cc1 | 50 µM | 170 | 31 µM | 49 µM | 0.29 µM
Clc1nss/c1=N\c1ccccn1 | 4.6 µM | 105 | 29 µM | 40 µM | 0.38 µM
COc1cccc(/N=c2\ssnc2Cl)n1 | 4.3 µM | 178 | 34 µM | 47 µM | 0.26 µM

SMILES | CC50 at 24 h [1] | selectivity ratio [2] | CC50 at 24 h [3] | CC50 at 168 h [4] | EC50 [5]
FC(F)(F)Oc1ccc(/N=c2\ssnc2Cl)cc1Cl | > 100 µM | 1 | 85 µM | 23 µM | 23 µM
COc1cccnc1/N=c1\ssnc1Cl | 37 µM | 21 | 37 µM | 61 µM | 2.9 µM
Fc1ccc(F)c(/N=c2\ssnc2Cl)c1 | > 100 µM | 131 | > 100 µM | 89 µM | 0.68 µM
Clc1ccc(/N=c2\ssnc2Cl)cc1 | 51 µM | 79 | > 100 µM | 45 µM | 0.57 µM
Clc1nss/c1=N\c1ccccc1Br | > 100 µM | 3.3 | > 100 µM | 39 µM | 12 µM
N#Cc1ccc(/N=c2\ssnc2Cl)cc1 | 50 µM | > 160 | 31 µM | > 100 µM | 0.62 µM
Cc1cc(/N=c2\ssnc2Cl)n[nH]1 | 55 µM | 600 | > 100 µM | 50 µM | 0.083 µM
Fc1ccc(/N=c2\ssnc2Cl)cc1 | > 100 µM | > 100 | > 100 µM | > 100 µM | 0.98 µM
Clc1nss/c1=N\c1nccs1 | 8.4 µM | 1.6 | 7.6 µM | 4.7 µM | 3 µM
N#Cc1c(Br)cccc1/N=c1\ssnc1Cl | 41 µM | 3.5 | 38 µM | 53 µM | 15 µM
N#Cc1cccnc1/N=c1\ssnc1Cl | 36 µM | 122 | 3.1 µM | 51 µM | 0.42 µM
FC(F)(F)Oc1ccc(/N=c2\ssnc2Cl)cc1Br | > 100 µM |  | > 100 µM | > 100 µM | > 100 µM
FC(F)(F)Oc1ccc(/N=c2\ssnc2Cl)cc1 | > 100 µM |  | > 100 µM | > 100 µM | > 100 µM
O=[N+]([O-])c1cccnc1/N=c1\ssnc1Cl | 6.1 µM | 1.3 | 21 µM | 2.6 µM | 2 µM
Clc1nss/c1=N\c1cccc(Br)n1 | 52 µM | 92 | 38 µM | 44 µM | 0.48 µM
CCCCOc1ccc(/N=c2\ssnc2Cl)cc1 | > 100 µM | > 3.8 | > 100 µM | > 100 µM | 26 µM
